Results on two molecules are retold here after patent publication US8722731B2, “Furanyl compounds and the use thereof” (NovoMedix, LLC, priority 2010, dated 2014).

Molecules are shown by their SMILES.

One assay has as its system OVCAR-3. Nature of the assay: IC50 cell-based assay, adherent cells, OVCAR-3. The following applies: Homo sapiens, Ovarian, adenocarcinoma, 72 hours, read-out: IC50 of Compounds in Adherent Cell Types. The protocol:
(§1) In one embodiment, the IC50s of the compounds provided herein were determined in cell-based assays using adherent cells. In one embodiment, the activity of the compounds provided herein were determined in a cell-based assay using the triple negative breast cancer cell line MDA-MB-468. In one embodiment, the adherent cells used in the cell-based assays may be a cell type selected from Table 1. In one embodiment, the cell-based assay may be carried out as provided herein. On day 0, cells were seeded at 20,000 cells per well in 100 µL of media into individual wells of a 96-well tissue culture plate. The next day, compounds were diluted to twice the desired final concentration and added in 100 µL of media for a final volume of 200 μL. Standard solutions for each compound were prepared at 1000× concentration in DMSO. The highest concentration was 30 mM. Serial 1:1 dilutions were made from there for a 6- or 9-point curve (e.g., 30 mM, 15 mM, 7.5 mM, etc). Compounds were then diluted 1:500 in media, and 100 µL of the resulting solution was added to each well for a final dilution of 1:1000. Each concentration of compound was tested in triplicate. Cells were incubated at 37° C. with 5% CO2. After 72 hours, 20 μL of CellTiter 96 Aqueous One Solution Cell Proliferation Assay (Promega) was added to each well. Cells were placed back in the incubator, and the absorbance at 490 nm was read after 2-3 hours. The concentration of compound that decreased the number of metabolically active cells by 50% was determined and reported as the IC50. “Percent Viability” was determined by subtracting the average background value (media only) and expressed as a ratio to the average value obtained from cells treated with only DMSO.

Another assay relates to SKBR-3. Briefly: IC50 cell-based assay, adherent cells, SKBR-3. The following applies: Homo sapiens, SK-BR-3, Breast, ER−, 72 hours, read-out: IC50 of Compounds in Adherent Cell Types. The protocol: as §1
The subject of a further assay is U87-MG. Briefly: IC50 cell-based assay, adherent cells, U87-MG. The following applies: Homo sapiens, U-87 MG, Brain, glioblastoma, 72 hours, read-out: IC50 of Compounds in Adherent Cell Types. The protocol:
as §1

The subject of the next assay is H-460. Nature of the assay: IC50 cell-based assay, adherent cells, H-460. The following applies: Homo sapiens, NCI-H460, Lung, large cell carcinoma, 72 hours, read-out: IC50 of Compounds in Adherent Cell Types. The protocol:
as §1

A further assay concerns MDA-MB-361. Nature of the assay: IC50 cell-based assay, adherent cells, MDA-MB-361. The following applies: Homo sapiens, Breast, Brain met Her2-neu + ER +, 72 hours, read-out: IC50 of Compounds in Adherent Cell Types. On the procedure: as §1
For another assay, the system named is Pfeiffer. Briefly: IC50 cell-based assay, suspension cells, Pfeiffer. The following applies: Homo sapiens, Lymphoma, Diffuse large b-cell, read-out: IC50 of Compounds in Suspension Cell Types. On the procedure:
as §1
(§2) In one embodiment, the IC50s of the compounds provided herein were determined in cell-based assays using suspension cells. In one embodiment, the activity of the compounds provided herein were determined in a cell-based assay using the JeKo-1 cell line (mantle cell lymphoma) or the Pfeiffer cell line (diffuse large B-cell lymphoma). In one embodiment, the suspension cells used in the cell-based assays may be a cell type selected from Table 2. Assays with suspension cells were similar except that 40,000-60,000 cells were added to each well and compounds were added immediately after cell plating.

Another assay relates to Caki-1. Nature of the assay: IC50 cell-based assay, adherent cells, Caki-1. The following applies: Homo sapiens, Kidney, clear cell carc., skin met, 72 hours, read-out: IC50 of Compounds in Adherent Cell Types. On the procedure: as §1
Another assay relates to Panc-1. Briefly: IC50 cell-based assay, adherent cells, Panc-1. The following applies: Homo sapiens, Pancreas, epitheloid carcinoma, 72 hours, read-out: IC50 of Compounds in Adherent Cell Types. On the procedure:
as §1

The subject of a further assay is AsPC-1. Nature of the assay: IC50 cell-based assay, adherent cells, AsPC-1. The following applies: Homo sapiens, ASPC1, Pancreas, carcinoma, 72 hours, read-out: IC50 of Compounds in Adherent Cell Types. On the procedure:
as §1

A further assay deals with MDA-MB-468 breast tumors. Nature of the assay: Tumor growth inhibition in MDA-MB-468 mouse xenograft model for breast cancer (tumor volume). The class given is in vivo. The following applies: SCID mice. The protocol: In one embodiment, the effects of a compound provided herein on tumor growth in a mouse animal model were evaluated. In specific embodiments, the mouse animal model was the MDA-MB-468 xenograft model for breast cancer. Studies were performed to evaluate the effect of a compound provided herein on the growth of MDA-MB-468 breast tumors in mice. The test system that was used is summarized below:
Exemplary Protocol: Ten mice per group were inoculated s.c. on the left flank with 5×10^6 MDA-MB-468 cells. When tumors reached a mean volume of 100 or 200 mm^3, animals began treatment with a compound provided herein (See Table 4). Test article or vehicle were given once daily by IP injection for up to 21 days. Tumors were evaluated every Monday, Wednesday and Friday, body weights and condition were evaluated on a daily basis.
Cell Culture: MDA-MB-468 breast cancer cells were grown in Liebowitz's L-15 with 10% fetal bovine serum and 1% pen/strep. Cells were routinely trypsinized and passaged 1:4. On the day of implantation, cells were washed in PBS, trypsinized and resuspended in complete media. Cells were washed 3× in serum free media (centrifuged 1000 rpm for 5 min). Cells were resuspended to a density of 1×10^8 cells/mL and diluted 1:1 with Matrigel. Cells were implanted s.c. using a 23 G needle in a volume of 0.1 mL.
Tumor Measurement: Tumors were monitored daily. If, during a daily evaluation, an animal's tumor appeared to have exceeded 1500 mm^3, the tumor was measured; and animals with tumors greater than 1500 mm^3 and/or that had become necrotic and/or hindered movement were euthanized. Tumors were measured twice weekly by measuring each tumor in 2 dimensions, along the largest dimension (length, L) and perpendicular to this dimension (width, W). Tumor weights were calculated using the standard formula: (L×W^2)/2. The mean tumor weight and standard error of the mean were calculated for each group at each time point. An ANOVA was used to compare differences of primary tumor volume.
Compound 1 was dosed in mice at a dose of, for example, qd 50 mg/kg, for 22 days or more.
Compound 2 was dosed in mice at a dose of, for example, qd 20 mg/kg from day 0 to 7, then qd 10 mg/kg from day 8 and thereafter, for 22 days or more.

Another assay concerns Nalm-6-VR. Briefly: IC50 cell-based assay, suspension cells, Nalm-6-VR. The following applies: Leukemia, B-ALL, Vincristine resistant, read-out: IC50 of Compounds in Suspension Cell Types. On the procedure:
as §1, §2

Another assay relates to Z138, JeKo-1. Nature of the assay: IC50 cell-based assay, suspension cells, Z138, JeKo-1. The following applies: Lymphoma, Mantle cell, read-out: IC50 of Compounds in Suspension Cell Types. The protocol: as §1, §2

As for `O=C(Nc1cc(C(F)(F)F)cc(C(F)(F)F)c1)c1cc(-c2ccccc2)oc1C(F)(F)F` [Compound 1, 5-Phenyl-2-trifluoromethyl-furan-3-carboxylic acid (3,5-bis-trifluoromethyl-phenyl)-amide], the IC50 (usually the midpoint of a concentration-inhibition curve) in the assay with OVCAR-3 was less than 5 µM; in the assay on SKBR-3, less than 5 µM; with U87-MG, less than 5 µM; in the assay with H-460, 10 to 20 µM; in the assay with MDA-MB-361 it was less than 5 µM; in the assay with Pfeiffer, less than 5 µM. For the same molecule, the IC50 with Caki-1 was more than 20 µM; in the assay on Panc-1 it was less than 5 µM; in the assay with AsPC-1, less than 5 µM; in the assay with Nalm-6-VR, less than 5 µM; in the assay on Z138, JeKo-1, less than 5 µM. For the same molecule, the “Tumor Volumes in Control and Treated Animals, mean” value (“Tumor Volumes” for short) in the assay on MDA-MB-468 breast tumors (Day 1, qd 50 mg/kg IP) is 112.66 mm^3; with MDA-MB-468 breast tumors (Day 3, qd 50 mg/kg IP), 101.41 mm^3; in the assay with MDA-MB-468 breast tumors (Day 5, qd 50 mg/kg IP), 91.44 mm^3; in the assay with MDA-MB-468 breast tumors (Day 8, qd 50 mg/kg IP) it was 146.58 mm^3; with MDA-MB-468 breast tumors (Day 10, qd 50 mg/kg IP), 175.96 mm^3; in the assay on MDA-MB-468 breast tumors (Day 12, qd 50 mg/kg IP), 226.90 mm^3. Moreover, the “Tumor Volumes” value with MDA-MB-468 breast tumors (Day 15, qd 50 mg/kg IP) amounted to 276.23 mm^3; in the assay with MDA-MB-468 breast tumors (Day 17, qd 50 mg/kg IP), 336.22 mm^3; in the assay with MDA-MB-468 breast tumors (Day 19, qd 50 mg/kg IP), 366.60 mm^3; in the assay on MDA-MB-468 breast tumors (Day 22, qd 50 mg/kg IP) it was 383.38 mm^3.
As for `O=C(Nc1cc(C(F)(F)F)cc(C(F)(F)F)c1)c1cc(-c2ccc(Cl)cc2)oc1C(F)(F)F` [Compound 2, 5-(4-Chlorophenyl)-N-(3,5-bistrifluoromethylphenyl)-2-trifluoromethylfuran-3-carboxamide], the IC50 with OVCAR-3 was 5 to 10 µM; with SKBR-3, less than 5 µM; in the assay on U87-MG it was 5 to 10 µM; in the assay on H-460, more than 20 µM; with MDA-MB-361, less than 5 µM; in the assay on Pfeiffer, less than 5 µM. Besides, the IC50 in the assay with Caki-1 was 5 to 10 µM; in the assay with Panc-1, 5 to 10 µM; in the assay with AsPC-1, 5 to 10 µM; with Nalm-6-VR it was less than 5 µM; in the assay with Z138, JeKo-1 it was less than 5 µM. Besides, the “Tumor Volumes” value in the assay with MDA-MB-468 breast tumors (Day 1, qd 20 mg/kg days 0 to 7, then qd 10 mg/kg day 8 and thereafter, IP) worked out at 119.09 mm^3; in the assay on MDA-MB-468 breast tumors (Day 3, qd 20 mg/kg days 0 to 7, then qd 10 mg/kg day 8 and thereafter, IP), 103.39 mm^3; in the assay with MDA-MB-468 breast tumors (Day 5, qd 20 mg/kg days 0 to 7, then qd 10 mg/kg day 8 and thereafter, IP), 119.30 mm^3; in the assay on MDA-MB-468 breast tumors (Day 8, qd 20 mg/kg days 0 to 7, then qd 10 mg/kg day 8 and thereafter, IP), 139.19 mm^3; in the assay on MDA-MB-468 breast tumors (Day 10, qd 20 mg/kg days 0 to 7, then qd 10 mg/kg day 8 and thereafter, IP), 181.97 mm^3; with MDA-MB-468 breast tumors (Day 12, qd 20 mg/kg days 0 to 7, then qd 10 mg/kg day 8 and thereafter, IP), 234.51 mm^3. For the same molecule, the “Tumor Volumes” value in the assay on MDA-MB-468 breast tumors (Day 15, qd 20 mg/kg days 0 to 7, then qd 10 mg/kg day 8 and thereafter, IP) is recorded as 276.34 mm^3; with MDA-MB-468 breast tumors (Day 17, qd 20 mg/kg days 0 to 7, then qd 10 mg/kg day 8 and thereafter, IP), 311.15 mm^3; in the assay with MDA-MB-468 breast tumors (Day 19, qd 20 mg/kg days 0 to 7, then qd 10 mg/kg day 8 and thereafter, IP), 318.18 mm^3; in the assay on MDA-MB-468 breast tumors (Day 22, qd 20 mg/kg days 0 to 7, then qd 10 mg/kg day 8 and thereafter, IP) it was 356.43 mm^3.
